Data as given in patent EP0666253A1, “N-t-BUTYLANILINE ANALOG AND LIPID LEVEL DEPRESSANT CONTAINING THE SAME” (priority 1992, dated 1994).
Where a name gives a salt, the structure may show the parent alone. Read-outs that look alike come from different tables or passages of the source.

Legend:
[1] = test system: lipid level in blood; test: Action on the lipid level in blood (rats on high cholesterol feed); type: in vivo, Male Wistar strain rats; conditions: Rattus norvegicus, relative to the control, oral 25 mg/kg/day, starved 24 hours after final administration; for change in vivo at 25 mg/kg/day: high density lipoprotein-cholesterol, read-out: HDL-Ch increase rate
Protocol: Male Wistar strain rats with weights of about 200 g were given a high cholesterol feed containing 1 % cholesterol and 0.5 % cholic acid. Simultaneously, a suspension of a test compound in 5 % aq. gum arabic was orally administered in an amount of 25 mg/kg/day. After the final administration, the animals were starved for 24 hours and then evaluated for serum total cholesterol (TC), high density lipoprotein-cholesterol (HDL-Ch) and serum triglyceride (TG) content. The control group was orally given 5 % aq. solution of gum arabic. […] In Table 4, test compounds Nos. 1 to 11 correspond respectively to the hydrochlorides of the compounds of Examples 1 to 11.

[2] = test system: hepatic parenchymal cells; test: Action on incorporation of LDL (radioisotope-labeled LDL, primary culture); type: cell-based, male Wistar strain rat; conditions: Rattus norvegicus; relative to the control (DMSO only); test compound 10 µg/ml, incubated 24 hours, then labeled LDL for 4 hours; read-out: incorporation ratio of LDL
Protocol: hepatic cells were separated from the liver of a male Wistar strain rat weighing about 200 g, and the hepatic parenchymal cells were incubated in primary culture. 48 hours thereafter, a solution of a test compound in dimethylsulfoxide (DMSO) (10 µg/ml) was added thereto and incubated for 24 hours. Then, a radioisotope-labeled low density lipoprotein (LDL) was added thereto, and incubation was continued for further 4 hours. The cells were washed with physiological saline and then lysed with sodium dodecyl sulfate (SDS), and their radioactivity was determined in a liquid scintillation counter. The control group was treated in the same manner as above except for the addition of DMSO only. […] In Table 5, the test compounds 1 to 11 correspond respectively to the hydrochlorides of the compounds of Examples 1 to 11.

[3] = in vivo; conditions: mouse
Protocol: Acute toxicity was examined in the Litchfield and Wilcoxon's method where 10 ICR male mice were orally given a test compound.
The LD₅₀ of clofibrate was 1600 mg/kg.

[4] = serum total cholesterol, suspension in 5 % aq. gum arabic, read-out: TC decrease rate
[5] = serum triglyceride, read-out: TG decrease rate

Molecule CC(C)(C)N(c1ccc(Oc2ccccc2)cc1)S(C)(=O)=O [compound of Reference Example 3, 4-(N-t-butyl)methanesulfonylaminodiphenyl ether] has a change in vivo at 25 mg/kg/day [1] of -0.7%, an inhibition in vivo at 25 mg/kg/day [1, 4] of 3.6% and an inhibition in vivo at 25 mg/kg/day [1, 5] of -2.1%. The activation at 10 µg/mL [2] was -15.7%.

Work on CCOC(=O)C(C)(C)Oc1ccc(Cl)cc1 [clofibrate] yielded a change in vivo at 25 mg/kg/day [1] of -1.6%, an inhibition in vivo at 25 mg/kg/day [1, 4] of 1.2% and an inhibition in vivo at 25 mg/kg/day [1, 5] of -0.9%. For the same molecule, the activation at 10 µg/mL [2] was -10.5% and the LD50 ([3]; male, ICR, po) was 1600 mg/kg.

CC(C)(C)Nc1ccc(Sc2ccccc2)cc1 [test compound 1, 4-(t-butylamino)diphenylsulfide hydrochloride] gave a change in vivo at 25 mg/kg/day [1] of 39.4%, an inhibition in vivo at 25 mg/kg/day [1, 4] of 95.7% and an inhibition in vivo at 25 mg/kg/day [1, 5] of 48.5%. The activation at 10 µg/mL [2] was 65.3% and the LD50 ([3]; oral, 10 ICR male mice, read-out: LD₅₀) was over 5000 mg/kg.

Work on CCN(CC)c1ccc(Sc2ccc(C)cc2)cc1 [compound of Reference Example 4, N,N-diethyl-4-(4-tolylthio)aniline] yielded an inhibition in vivo at 25 mg/kg/day [1, 4] of -16.2% and an inhibition in vivo at 25 mg/kg/day [1, 5] of 30%.
